{
  "source": "patent US12325676B2",
  "about": "“Cationic lipid compound and composition for delivery of nucleic acids and use thereof” (Shenzhen Rhegen Biotechnology Co., Ltd., priority 2022, dated 2025)",
  "key": {"[1]": {"assay": "Encapsulation rate of mRNA-loaded lipid nanoparticles (Ribogreen kit)", "format": "physicochemical", "experimental": "(§1) Luciferase mRNA was diluted in 10-100 mM citrate buffer at pH 4.0; the lipid components (cationic lipids shown in the present disclosure: DSPC:cholesterol:PEG lipids (DMG-PEG2000)) were dissolved in ethanol at a molar ratio of 50:10:38.5:1.5.\n(§2) 3 mL of a mRNA buffer and 1 mL of a lipid solution were loaded into two 5 mL syringes respectively, and the syringes were installed on a microfluidic syringe pump. Chips were connected to the syringes and syringe pump flow rate was set. Clicking the start button of the syringe pump caused injection into the chip at a flow rate ratio of 3:1. Under observation of the color of the product at the exit of the chip, after discarding the first 5 milky white droplets (about 100 μL), the back-end sample was collected into an EP tube. The collected product was placed in a dialysis bag and dialyzed for 6 h (MWCO: 100 KDa) in 10 mM PBS (pH 7.4) intervals. Subsequently, after being concentrated by ultrafiltration to the desired concentration, the lipid nanoparticles were filtered through a 0.22 μm sterile filter and then stored at 4° C.\n(§3) Tests were performed to calculate the encapsulation rate of the products according to the instructions of Ribogreen kit. Particle size and polydispersity index (PDI) detection as well as zeta potential analysis was performed on a Malvern Zetasizer nano instrument using standard assays."}, "[2]": {"assay": "Particle size, PDI and zeta potential of mRNA-loaded lipid nanoparticles (Malvern Zetasizer nano)", "format": "physicochemical", "experimental": "as §1, §2, §3"}, "BALB/c mice [3]": {"tested_on": "BALB/c mice", "assay": "In vivo expression of luciferase mRNA delivered by LNP, tail intravenous injection, small animal imaging", "conditions": "Table 3, 5 μg mRNA, female BALB/c mice, DLin-MC3-DMA = 100", "experimental": "LUC-mRNA-lipid nanoparticles containing 5 μg mRNA (see SEQ ID NO: 1 in the Patent Application Publication CN114380724A for the corresponding nucleotide sequence of LUC-mRNA) were injected via tail intravenous injection in 6-8 week old female BALB/c mice, prepared as in Example 19. 100 μg of D-Luciferin Potassium Salt was injected via tail intravenous injection into the mice at specific time points and assayed using the PerkinElmer Small Animal Imaging System. Fluc is commonly used in mammalian cell cultures to measure gene expression and cell viability, and it emits biological fluorescent light in the presence of the substrate […]. The basic characteristics of the mRNA used include ARCA cap structure, polyA tail length of 120 nt, and complete substitution of pseudouridine.\nThe effect of delivering luciferase mRNA using more cationic lipids were validated according to the methods of Example 20 and Example 21."}, "BALB/c mice [4]": {"tested_on": "BALB/c mice", "assay": "Novel coronavirus mRNA vaccine delivered by LNP, intramuscular immunization, binding antibody titer by ELISA", "conditions": "mouse, in vivo"}, "BALB/c mice [5]": {"tested_on": "BALB/c mice", "assay": "In vivo EPO protein expression after tail i.v. injection of EPO-mRNA LNP, serum ELISA", "conditions": "6 hours after tail i.v. injection of 20 μg EPO-mRNA-lipid nanoparticles, female Balb/c mice", "experimental": "In the example, the effects of in vivo transfection of erythropoietin (EPO) by various cationic liposomes were compared. Nanoparticles were prepared in the same manner as in Example 20, and the nucleotide sequence corresponding to the EPO mRNA used is given in CN114380724B, SEQ ID NO:2. After preparation, 20 μg of EPO-mRNA-lipid nanoparticles were injected via tail intravenous injection in 6-8 week female Balb/c mice. 6 hours later the mice were subjected to blood sampling from the eye frame. After centrifugation to separate the serum, EPO protein expression was determined using ELISA. The basic characteristics of the mRNA used include ARCA cap structure, polyA tail length of 100-120 nt, and complete substitution of pseudouridine."}, "C57BL6 mice": {"tested_on": "C57BL6 mice", "assay": "Intratumoral injection of luciferase mRNA LNP, fluorescence of tumor and liver", "format": "in vivo", "conditions": "luciferase mRNA LNP 25 μL/2.5 μg intratumoral, B 16F 10 tumor in C57BL6 mice, imaging after 24 h (FIGS. 6 and 7)", "experimental": "Different types of lipid nanoparticles encapsulating luciferase mRNA in were prepared accordance with the preparation of Example 20. Tumors were injected subcutaneously in the right abdomen of 6-8 week female C57BL6 mice at 5×10^5 B 16F 10 cells (from CAS Cell Bank, CSTR:19375.09.3101MOUTCM36)/mouse, and tumor growth was observed and recorded periodically. On the 8th day after tumor inoculation, the length (L, mm) and width (D, mm) of the tumors were measured by using a vernier caliper, and the tumor volume (V) was calculated according to the formula V=(L×D^2)/2. Mice with tumor volume in the range of 80-120 mm^3 were taken and randomly grouped, and intratumorally injected with different types of lipid nanoparticles encapsulating luciferase mRNA at the volume of 25 μL/2.5 μg. Anatomical imaging was performed after 24 h to detect the fluorescence intensity of the mouse liver and tumor (as shown in FIGS. 6 and 7). […] This indicates better in situ tumor expression and lower liver […], which is suitable for encapsulation and delivery of some tumor therapy-related nucleic acid drugs."}, "[6]": {"assay": "Encapsulation rate of mRNA-loaded lipid nanoparticles (Ribogreen kit)", "format": "physicochemical", "remark": "listed apart in the source"}, "[7]": {"assay": "Particle size, PDI and zeta potential of mRNA-loaded lipid nanoparticles (Malvern Zetasizer nano)", "format": "physicochemical", "remark": "listed apart in the source"}, "[8]": {"conditions": "Table 1, Luciferase mRNA LNP, cationic lipid:DSPC:cholesterol:DMG-PEG2000 50:10:38.5:1.5 molar"}, "[9]": {"conditions": "Table 3 batch, luciferase mRNA LNP prepared as Example 20"}, "[10]": {"conditions": "Table 2 No. 1, Luc mRNA LNP, Compound 35/DMG-PEG2000/DSPC/cholesterol 55/2.5/22/20.5 molar, N/P 5"}, "[11]": {"conditions": "Table 2 No. 2, Luc mRNA LNP, Compound 35/DMG-PEG2000/DSPC/cholesterol 45/1.5/22/31.5 molar, N/P 10"}, "[12]": {"conditions": "Table 2 No. 3, Luc mRNA LNP, Compound 35/DMG-PEG2000/DSPC/cholesterol 45/2.5/8/44.5 molar, N/P 5"}, "[13]": {"conditions": "Table 2 No. 4, Luc mRNA LNP, Compound 35/DMG-PEG2000/DSPC/cholesterol 45/1.5/8/45.5 molar, N/P 10"}, "[14]": {"conditions": "Table 2 No. 5, Luc mRNA LNP, Compound 35/DMG-PEG2000/DSPC/cholesterol 50/1.5/15/33.5 molar, N/P 7.5"}, "[15]": {"conditions": "Table 2 No. 6, Luc mRNA LNP, Compound 35/DMG-PEG2000/DSPC/cholesterol 55/1.5/15/28.5 molar, N/P 10"}, "[16]": {"conditions": "Table 2 No. 7, Luc mRNA LNP, Compound 35/DMG-PEG2000/DOPE/cholesterol 55/2.5/22/20.5 molar, N/P 5"}, "[17]": {"conditions": "Table 2 No. 8, Luc mRNA LNP, Compound 35/DMG-PEG2000/DOPE/cholesterol 45/1.5/22/31.5 molar, N/P 10"}, "[18]": {"conditions": "Table 2 No. 9, Luc mRNA LNP, Compound 35/DMG-PEG2000/DOPE/cholesterol 45/2.5/8/44.5 molar, N/P 5"}, "[19]": {"conditions": "Table 2 No. 10, Luc mRNA LNP, Compound 35/DMG-PEG2000/DOPE/cholesterol 45/1.5/8/45.5 molar, N/P 10"}, "[20]": {"conditions": "Table 2 No. 11, Luc mRNA LNP, Compound 35/DMG-PEG2000/DOPE/cholesterol 50/1.5/15/33.5 molar, N/P 7.5"}, "[21]": {"conditions": "Table 2 No. 12, Luc mRNA LNP, Compound 35/DMG-PEG2000/DOPE/cholesterol 55/1.5/15/28.5 molar, N/P 10"}, "[22]": {"conditions": "Table 4 batch, EPO mRNA LNP prepared as Example 20"}},
  "data": [
    {"compound": "CCCCCCCCSCC(C)C(=O)OCCCCCN(CCO)CCCCCCCC(=O)OC(CCCCCCCC)CCCCCCCC", "note": "(stereo not drawn) [Compound 35]", "values": [
      {"measurement": "Encapsulation rate (%)", "setting": "[1]; [8]", "result": 90.4, "unit": "%"},
      {"measurement": "Encapsulation rate (%)", "setting": "[1]; [9]", "result": 96.2, "unit": "%"},
      {"measurement": "PDI", "setting": "[2]; [8]", "result": 0.11},
      {"measurement": "Particle size (nm)", "setting": "[2]; [8]", "result": 104.5, "unit": "nm"},
      {"measurement": "Zeta potential (mV)", "setting": "[2]; [8]", "result": "−2.10", "unit": "mV"},
      {"measurement": "PDI", "setting": "[2]; [9]", "result": 0.14},
      {"measurement": "Particle size (nm)", "setting": "[2]; [9]", "result": 80.4, "unit": "nm"},
      {"measurement": "relative fluorescence intensity (%)", "setting": "BALB/c mice [3]", "result": "962 ± 78", "unit": "%"},
      {"measurement": "binding antibody titer", "setting": "BALB/c mice [4]", "result": 1.4, "unit": "million"},
      {"measurement": "EPO concentration", "setting": "BALB/c mice [5]", "result": "5.73e+07", "unit": "pg/mL"},
      {"measurement": "brightness (fluorescence intensity) at the tumor", "setting": "C57BL6 mice", "result": "higher brightness at the tumor"},
      {"measurement": "brightness (fluorescence intensity) in the liver", "setting": "C57BL6 mice", "result": "lower brightness in the liver"},
      {"measurement": "Encapsulation rate (%)", "setting": "[6]; [10]", "result": 85.78, "unit": "%"},
      {"measurement": "Encapsulation rate (%)", "setting": "[6]; [11]", "result": 96.98, "unit": "%"},
      {"measurement": "Encapsulation rate (%)", "setting": "[6]; [12]", "result": 97.38, "unit": "%"},
      {"measurement": "Encapsulation rate (%)", "setting": "[6]; [13]", "result": 96.70, "unit": "%"},
      {"measurement": "Encapsulation rate (%)", "setting": "[6]; [14]", "result": 96.10, "unit": "%"},
      {"measurement": "Encapsulation rate (%)", "setting": "[6]; [15]", "result": 94.46, "unit": "%"},
      {"measurement": "Encapsulation rate (%)", "setting": "[6]; [16]", "result": 90.26, "unit": "%"},
      {"measurement": "Encapsulation rate (%)", "setting": "[6]; [17]", "result": 94.11, "unit": "%"},
      {"measurement": "Encapsulation rate (%)", "setting": "[6]; [18]", "result": 94.62, "unit": "%"},
      {"measurement": "Encapsulation rate (%)", "setting": "[6]; [19]", "result": 96.36, "unit": "%"},
      {"measurement": "Encapsulation rate (%)", "setting": "[6]; [20]", "result": 92.54, "unit": "%"},
      {"measurement": "Encapsulation rate (%)", "setting": "[6]; [21]", "result": 96.16, "unit": "%"},
      {"measurement": "Encapsulation rate (%)", "setting": "[6]; [22]", "result": 96.1, "unit": "%"},
      {"measurement": "PDI", "setting": "[7]; [10]", "result": 0.193},
      {"measurement": "Particle size (nm)", "setting": "[7]; [10]", "result": 100.5, "unit": "nm"},
      {"measurement": "PDI", "setting": "[7]; [11]", "result": 0.121},
      {"measurement": "Particle size (nm)", "setting": "[7]; [11]", "result": 98.13, "unit": "nm"},
      {"measurement": "PDI", "setting": "[7]; [12]", "result": 0.138},
      {"measurement": "Particle size (nm)", "setting": "[7]; [12]", "result": 70.02, "unit": "nm"},
      {"measurement": "PDI", "setting": "[7]; [13]", "result": 0.121},
      {"measurement": "Particle size (nm)", "setting": "[7]; [13]", "result": 98.19, "unit": "nm"},
      {"measurement": "PDI", "setting": "[7]; [14]", "result": 0.051},
      {"measurement": "Particle size (nm)", "setting": "[7]; [14]", "result": 85.09, "unit": "nm"},
      {"measurement": "PDI", "setting": "[7]; [15]", "result": 0.122},
      {"measurement": "Particle size (nm)", "setting": "[7]; [15]", "result": 93.83, "unit": "nm"},
      {"measurement": "PDI", "setting": "[7]; [16]", "result": 0.169},
      {"measurement": "Particle size (nm)", "setting": "[7]; [16]", "result": 145.0, "unit": "nm"},
      {"measurement": "PDI", "setting": "[7]; [17]", "result": 0.205},
      {"measurement": "Particle size (nm)", "setting": "[7]; [17]", "result": 114.9, "unit": "nm"},
      {"measurement": "PDI", "setting": "[7]; [18]", "result": 0.173},
      {"measurement": "Particle size (nm)", "setting": "[7]; [18]", "result": 92.41, "unit": "nm"},
      {"measurement": "PDI", "setting": "[7]; [19]", "result": 0.233},
      {"measurement": "Particle size (nm)", "setting": "[7]; [19]", "result": 113.7, "unit": "nm"},
      {"measurement": "PDI", "setting": "[7]; [20]", "result": 0.155},
      {"measurement": "Particle size (nm)", "setting": "[7]; [20]", "result": 140.2, "unit": "nm"},
      {"measurement": "PDI", "setting": "[7]; [21]", "result": 0.190},
      {"measurement": "Particle size (nm)", "setting": "[7]; [21]", "result": 129.1, "unit": "nm"},
      {"measurement": "PDI", "setting": "[7]; [22]", "result": 0.12},
      {"measurement": "Particle size (nm)", "setting": "[7]; [22]", "result": 79.1, "unit": "nm"}
    ]}
  ]
}
